In the NIST ThermoML archive (doi:10.1021/je060139a):

Experiment: refractive index (Na D-line) (dimensionless); xn = mol fraction of the nth substance listed
Details: 100.5 kPa, Liquid, Standard Abbe refractometry

CCOC(=O)c1ccccc1O [ethyl 2-hydroxybenzoate] + CCO
refractive index
Details | 288.15 K | 298.18 K | 308.15 K | 318.15 K
x1 = 0.05 | 1.38326 | 1.37908 | 1.37478 | 1.37068
x1 = 0.1 | 1.40028 | 1.39599 | 1.39159 | 1.38739
x1 = 0.15 | 1.41504 | 1.41072 | 1.40628 | 1.40202
x1 = 0.2 | 1.42788 | 1.42347 | 1.41902 | 1.4147
x1 = 0.25 | 1.43914 | 1.43468 | 1.4302 | 1.4258
x1 = 0.3 | 1.44918 | 1.44465 | 1.44012 | 1.43567
x1 = 0.35 | 1.4582 | 1.45364 | 1.44908 | 1.44456
x1 = 0.4 | 1.46635 | 1.46177 | 1.45719 | 1.45266
x1 = 0.45 | 1.47375 | 1.46918 | 1.46462 | 1.46008
x1 = 0.5 | 1.48051 | 1.47593 | 1.47139 | 1.46685
x1 = 0.55 | 1.4867 | 1.48212 | 1.4776 | 1.47306
x1 = 0.6 | 1.49239 | 1.48782 | 1.48328 | 1.47873
x1 = 0.65 | 1.49763 | 1.49304 | 1.48852 | 1.48397
x1 = 0.7 | 1.50246 | 1.49784 | 1.49331 | 1.48874
x1 = 0.75 | 1.50695 | 1.50232 | 1.49779 | 1.49321
x1 = 0.8 | 1.51112 | 1.50649 | 1.50196 | 1.49738
x1 = 0.85 | 1.51498 | 1.51035 | 1.50582 | 1.50123
x1 = 0.9 | 1.51852 | 1.51391 | 1.50938 | 1.50479
x1 = 0.95 | 1.52184 | 1.51723 | 1.51272 | 1.50814
x1 = 1 | 1.52481 | 1.52022 | 1.51573 | 1.51116
